Where two headings read alike, the source gives them in different places. One block for each compound: values may come before it.
What was measured:
[1] = test system: MOLM-13 cells; assay: Cell viability assay (CellTiter-Glo) in MOLM-13 cells, alone or with gilteritinib; type: cell-based; conditions: MOLM-13 cells; for IC50: Homo sapiens, CellTiter-Glo; for Sensitivity of FLT3-mutant AML cells to GSPT1 degrader upon FLT3 inhibition: with or without 20 nM gilteritinib, 3 days (FIG. 2A-2C)
[2] = test system: MV4;11 cells; assay: Cell viability assay (CellTiter-Glo) in MV4;11 cells, alone or with gilteritinib; type: cell-based; conditions: Homo sapiens, MV4;11 cells, CellTiter-Glo, read-out: MV4
[3] = test system: MOLM-13 cells; assay: Cell viability / cell growth inhibition of MOLM-13 cells, GSPT1 degrader with or without gilteritinib; type: cell-based; conditions: combined with FLT3 inhibitor gilteritinib (20 nM in FIG. 2A-2C)
Description: FIG. 2A is a graph of cell viability in MOML-13 cells treated with varying doses of GS-002, with or without gilteritinib at 20 nM.
FIG. 2B is a graph of cell viability in MOML-13 cells treated with varying doses of GS-005, with or without gilteritinib at 20 nM.
FIG. 2C is a graph of cell viability in MOML-13 cells treated with varying doses of GS-006, with or without gilteritinib at 20 nM.
When combined with FLT3 inhibitor gilteritinib, the potency of some of the compounds was increased synergistically.

[4] = test system: tested cell lines; conditions: tested cell lines (Matyskiela, Lu et al. 2016); cited from earlier work
[5] = molecular target: GSPT1 (Homo sapiens, UniProt P15170+Q96SW2); conditions: cereblon-dependent; also other targets such as IKZF1 and IKZF3 (Matyskiela, Lu et al. 2016); cited from earlier work
[6] = MOLM-13, 72 h, with 20 nM gilteritinib, 3 days, read-out: MOLM-13 IC50 gilteritinib
[7] = MOLM-13, 72 h, without gilteritinib, 3 days, read-out: MOLM-13 IC50
[8] = MV4-11, 72 h, with 10 nM gilteritinib, 3 days, 11 IC50 gilteritinib
[9] = MV4-11, 72 h, without gilteritinib, 3 days, 11 IC50
[10] = MOLM-13, 72 h, compound alone (without gilteritinib), three days, read-out: MOLM-13 IC50
[11] = MOLM-13, 72 h, with gilteritinib 20 nM, three days, read-out: MOLM-13 IC50 gilteritinib
[12] = MV4-11, 72 h, compound alone (without gilteritinib), three days, 11 IC50
[13] = MV4-11, 72 h, with gilteritinib 10 nM, three days, 11 IC50 gilteritinib
[14] = MOLM-13, 72 h, compound with gilteritinib 20 nM, three days, read-out: MOLM-13 IC50 gilteritinib
[15] = MV4-11, 72 h, compound with gilteritinib 10 nM, three days, 11 IC50 gilteritinib
[16] = 72 h, compound alone (without gilteritinib), three days, read-out: MOLM-13 IC50
[17] = 72 h, compound with gilteritinib 20 nM, three days, read-out: MOLM-13 IC50 gilteritinib
[18] = 72 h, compound alone (without gilteritinib), three days, 11 IC50
[19] = 72 h, compound with gilteritinib 10 nM, three days, 11 IC50 gilteritinib

Sequence of GSPT1 (P15170 whole entry): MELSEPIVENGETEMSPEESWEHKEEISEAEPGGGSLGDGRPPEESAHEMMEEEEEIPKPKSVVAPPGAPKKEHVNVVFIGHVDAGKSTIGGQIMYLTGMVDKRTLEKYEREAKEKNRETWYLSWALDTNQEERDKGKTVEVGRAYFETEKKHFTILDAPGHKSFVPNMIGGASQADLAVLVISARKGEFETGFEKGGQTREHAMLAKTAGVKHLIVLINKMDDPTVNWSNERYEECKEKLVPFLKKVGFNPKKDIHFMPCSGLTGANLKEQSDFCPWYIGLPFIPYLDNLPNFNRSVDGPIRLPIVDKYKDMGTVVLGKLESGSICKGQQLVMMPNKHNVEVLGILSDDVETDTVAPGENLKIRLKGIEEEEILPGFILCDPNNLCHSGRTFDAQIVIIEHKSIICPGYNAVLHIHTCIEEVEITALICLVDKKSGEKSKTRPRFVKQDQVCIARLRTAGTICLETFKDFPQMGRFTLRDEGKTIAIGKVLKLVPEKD
Sequence of GSPT1 (Q96SW2 whole entry): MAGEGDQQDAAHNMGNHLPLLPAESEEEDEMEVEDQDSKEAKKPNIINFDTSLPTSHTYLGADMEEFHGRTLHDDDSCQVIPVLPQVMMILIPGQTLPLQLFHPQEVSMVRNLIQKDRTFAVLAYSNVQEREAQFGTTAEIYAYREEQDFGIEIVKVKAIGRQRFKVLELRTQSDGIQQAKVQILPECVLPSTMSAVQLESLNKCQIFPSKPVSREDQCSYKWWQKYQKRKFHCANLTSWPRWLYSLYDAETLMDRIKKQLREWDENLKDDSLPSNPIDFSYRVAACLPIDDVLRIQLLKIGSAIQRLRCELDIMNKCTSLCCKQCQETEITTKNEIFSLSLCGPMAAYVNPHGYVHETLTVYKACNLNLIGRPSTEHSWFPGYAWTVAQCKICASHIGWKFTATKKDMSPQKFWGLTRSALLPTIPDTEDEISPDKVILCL
Sequence of GSPT1 (Q16531 whole entry partner): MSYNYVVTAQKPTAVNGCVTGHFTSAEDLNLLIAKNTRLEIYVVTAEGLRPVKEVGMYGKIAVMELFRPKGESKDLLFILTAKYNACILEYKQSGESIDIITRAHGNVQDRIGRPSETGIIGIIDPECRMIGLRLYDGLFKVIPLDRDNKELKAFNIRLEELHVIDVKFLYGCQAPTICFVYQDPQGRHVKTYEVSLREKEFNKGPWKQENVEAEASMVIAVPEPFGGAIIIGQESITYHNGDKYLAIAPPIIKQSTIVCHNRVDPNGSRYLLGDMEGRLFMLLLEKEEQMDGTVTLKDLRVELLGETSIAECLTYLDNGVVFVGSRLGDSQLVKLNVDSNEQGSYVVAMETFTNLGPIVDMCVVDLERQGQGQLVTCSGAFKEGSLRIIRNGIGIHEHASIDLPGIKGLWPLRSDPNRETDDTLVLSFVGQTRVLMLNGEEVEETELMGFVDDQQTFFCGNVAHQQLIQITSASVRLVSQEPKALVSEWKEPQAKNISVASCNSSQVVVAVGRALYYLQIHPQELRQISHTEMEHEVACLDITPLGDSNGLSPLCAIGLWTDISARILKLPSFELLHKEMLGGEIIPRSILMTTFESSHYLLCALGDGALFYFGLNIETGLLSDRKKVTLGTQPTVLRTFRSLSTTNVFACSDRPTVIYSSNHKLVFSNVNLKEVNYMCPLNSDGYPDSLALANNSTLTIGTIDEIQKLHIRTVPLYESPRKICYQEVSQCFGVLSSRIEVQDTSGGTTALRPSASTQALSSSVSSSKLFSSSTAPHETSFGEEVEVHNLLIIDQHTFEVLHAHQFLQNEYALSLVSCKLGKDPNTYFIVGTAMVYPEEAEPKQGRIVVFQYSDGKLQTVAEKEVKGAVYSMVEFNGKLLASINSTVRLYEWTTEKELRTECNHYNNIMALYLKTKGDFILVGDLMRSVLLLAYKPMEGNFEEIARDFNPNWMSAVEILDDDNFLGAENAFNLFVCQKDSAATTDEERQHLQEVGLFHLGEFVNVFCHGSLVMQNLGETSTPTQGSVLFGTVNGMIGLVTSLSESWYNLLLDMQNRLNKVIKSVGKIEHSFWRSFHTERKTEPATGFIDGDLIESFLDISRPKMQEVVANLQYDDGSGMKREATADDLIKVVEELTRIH

IC50 [1, 6]: 1.9 nM
IC50 [1, 7]: 583 nM
IC50 [2, 8]: 3 nM
IC50 [2, 9]: 227 nM
SMILES: O=C1CCC(N2C(=O)c3ccc(NCCCCCC(=O)N4CCC(n5cc(-c6cnc7cccc(Br)c7n6)cn5)CC4)cc3C2=O)C(=O)N1 (stereo not drawn) [GS-002, 5-((6-(4-(4-(8-bromoquinoxalin-2-yl)-1H-pyrazol-1-yl)piperidin-1-yl)-6-oxohexyl)amino)-2-(2,6-dioxopiperidin-3-yl)isoindoline-1,3-dione]
Sensitivity of FLT3-mutant AML cells to GSPT1 degrader upon FLT3 inhibition [1]: remarkably increases sensitivity
potency combined with gilteritinib, cell growth inhibition [3]: significantly improved

IC50 [1, 6]: 0.2 nM
IC50 [1, 7]: 11.8 nM
IC50 [2, 8]: 1.8 nM
IC50 [2, 9]: 6 nM
SMILES: O=C1CCC(N2C(=O)c3ccc(NCCCCCC(=O)N4CCC(n5cc(-c6cnc7ccccc7n6)cn5)CC4)cc3C2=O)C(=O)N1 (stereo not drawn) [GS-005, 2-(2,6-dioxopiperidin-3-yl)-5-((6-oxo-6-(4-(4-(quinoxalin-2-yl)-1H-pyrazol-1-yl)piperidin-1-yl)hexyl)amino)isoindoline-1,3-dione]
Sensitivity of FLT3-mutant AML cells to GSPT1 degrader upon FLT3 inhibition [1]: remarkably increases sensitivity
potency combined with gilteritinib, cell growth inhibition [3]: significantly improved

IC50 [1, 10]: 100 to 1000 nM
IC50 [1, 11]: 10 to 100 nM
IC50 [2, 12]: 10 to 100 nM
IC50 [2, 13]: < 10 nM
SMILES: COc1ccnc(-c2cnn([C@H]3C[C@H](CCCNc4ccc5c(c4)C(=O)N(C4CCC(=O)NC4=O)C5=O)C3)c2)c1 (stereo partly drawn) [GS-341, 2-(2,6-Dioxopiperidin-3-yl)-5-((3-(trans-3-(4-(4-methoxypyridin-2-yl)-1H-pyrazol-1-yl)cyclobutyl)propyl)amino)isoindoline-1,3-dione]

IC50 [1, 10]: < 10 nM
IC50 [1, 14]: > 1000 nM
IC50 [2, 12]: 100 to 1000 nM
IC50 [2, 15]: 100 to 1000 nM
SMILES: O=C1CCC(N2C(=O)c3ccc(NCCC[C@H]4C[C@H](n5cc(-c6ccc(Cl)cn6)cn5)C4)cc3C2=O)C(=O)N1 (stereo partly drawn) [GS-443, 5-((3-(trans-3-(4-(5-chloropyridin-2-yl)-1H-pyrazol-1-yl)cyclobutyl)propyl)amino)-2-(2,6-dioxopiperidin-3-yl)isoindoline-1,3-dione]

IC50 [1, 10]: > 1000 nM
IC50 [1, 14]: < 10 nM
IC50 [2, 12]: 10 to 100 nM
IC50 [2, 15]: 10 to 100 nM
SMILES: Cc1c(-c2cnc3ccccc3n2)cnn1CCCCCCNc1ccc2c(c1)C(=O)N(C1CCC(=O)NC1=O)C2=O (stereo not drawn) [GS-535, 2-(2,6-dioxopiperidin-3-yl)-5-((6-(5-methyl-4-(quinoxalin-2-yl)-1H-pyrazol-1-yl)hexyl)amino)isoindoline-1,3-dione]

SMILES: CN1CCC(Nc2cccc(-c3cn([C@H]4C[C@H](CNc5ccc6c(c5)C(=O)N(C5CCC(=O)NC5=O)C6=O)C4)nc3C3CC3)n2)CC1 (stereo partly drawn) [GS-454, 5-(((trans-3-(3-cyclopropyl-4-(6-((1-methylpiperidin-4-yl)amino)pyridin-2-yl)-1H-pyrazol-1-yl)cyclobutyl)methyl)amino)-2-(2,6-dioxopiperidin-3-yl)isoindoline-1,3-dione]
IC50 [1, 16]: > 1000 nM
IC50 [1, 17]: 100 to 1000 nM
IC50 [2, 18]: > 1000 nM
IC50 [2, 19]: 100 to 1000 nM

IC50 [1, 10]: > 1000 nM
IC50 [1, 11]: > 1000 nM
IC50 [2, 12]: > 1000 nM
IC50 [2, 13]: > 1000 nM
SMILES: O=C1CCC(N2Cc3cc(NCCCCC4(N5CCC(n6cc(-c7cnc8ccccc8n7)cn6)CC5)CC4)ccc3C2=O)C(=O)N1 (stereo not drawn) [GS-137, 3-(1-Oxo-5-((4-(1-(4-(4-(quinoxalin-2-yl)-1H-pyrazol-1-yl)piperidin-1-yl)cyclopropyl)butyl)amino)isoindolin-2-yl)piperidine-2,6-dione]

IC50 [1, 10]: 100 to 1000 nM
IC50 [1, 11]: 10 to 100 nM
IC50 [2, 12]: 10 to 100 nM
IC50 [2, 13]: < 10 nM
SMILES: O=C1CCC(N2C(=O)c3ccc(NC[C@H]4C[C@H](n5cc(-c6cc7[nH]ccc7cn6)c(C6CC6)n5)C4)cc3C2=O)C(=O)N1 (stereo partly drawn) [GS-282, 5-(((trans-3-(3-Cyclopropyl-4-(1H-pyrrolo[3,2-c]pyridin-6-yl)-1H-pyrazol-1-yl)cyclobutyl)methyl)amino)-2-(2,6-dioxopiperidin-3-yl)isoindoline-1,3-dione]

IC50 [1, 10]: > 1000 nM
IC50 [1, 14]: 10 to 100 nM
IC50 [2, 12]: 100 to 1000 nM
IC50 [2, 15]: 10 to 100 nM
SMILES: O=C1CCC(N2C(=O)c3ccc(NCCCCCCn4nc(C(F)(F)F)c(-c5cnc6ccccc6n5)c4C(F)(F)F)cc3C2=O)C(=O)N1 (stereo not drawn) [GS-554, 2-(2,6-Dioxopiperidin-3-yl)-5-((6-(4-(quinoxalin-2-yl)-3,5-bis(trifluoromethyl)-1H-pyrazol-1-yl)hexyl)amino)isoindoline-1,3-dione]

IC50 [1, 10]: 10 to 100 nM
IC50 [1, 11]: < 10 nM
IC50 [2, 12]: 10 to 100 nM
IC50 [2, 13]: < 10 nM
SMILES: O=C1CCC(N2Cc3c(Nc4ccnc(Nc5cccc(N6CCN(c7ncccn7)CC6)c5)n4)cccc3C2=O)C(=O)N1 (stereo not drawn) [GS-078, 3-(1-Oxo-4-((2-((3-(4-(pyrimidin-2-yl)piperazin-1-yl)phenyl)amino)pyrimidin-4-yl)amino)isoindolin-2-yl)piperidine-2,6-dione]

IC50 [1, 6]: 0.3 nM
IC50 [1, 7]: 29 nM
IC50 [2, 8]: 4.6 nM
IC50 [2, 9]: 12 nM
SMILES: O=C1CCC(N2C(=O)c3ccc(NCCCCCC(=O)N4CCC(n5cc(-c6ccc7ccccc7n6)cn5)CC4)cc3C2=O)C(=O)N1 (stereo not drawn) [GS-006, 2-(2,6-dioxopiperidin-3-yl)-5-((6-oxo-6-(4-(4-(quinolin-2-yl)-1H-pyrazol-1-yl)piperidin-1-yl)hexyl)amino)isoindoline-1,3-dione]
Sensitivity of FLT3-mutant AML cells to GSPT1 degrader upon FLT3 inhibition [1]: remarkably increases sensitivity
potency combined with gilteritinib, cell growth inhibition [3]: significantly improved

SMILES: Cc1ccc(NC(=O)NCc2ccc3c(c2)CN(C2CCC(=O)NC2=O)C3=O)cc1Cl (stereo not drawn) [CC-885]
toxicity in cell lines [4]: significant toxicity in the vast majority of tested cell lines
degradation of GSPT1 [5]: cereblon-dependent degradation of GSPT1

SMILES: O=C1CCC(N2C(=O)c3ccc(NCCCc4ccc(F)c(N5CCC(c6ccccc6)CC5)c4)cc3C2=O)C(=O)N1 (stereo not drawn) [GS-506, 2-(2,6-Dioxopiperidin-3-yl)-5-((3-(4-fluoro-3-(4-phenylpiperidin-1-yl)phenyl)propyl)amino)isoindoline-1,3-dione]
IC50 [1, 16]: > 1000 nM
IC50 [1, 17]: 100 to 1000 nM
IC50 [2, 18]: > 1000 nM
IC50 [2, 19]: > 1000 nM

IC50 [1, 10]: > 1000 nM
IC50 [1, 11]: 100 to 1000 nM
IC50 [2, 12]: 100 to 1000 nM
IC50 [2, 13]: > 1000 nM
SMILES: O=C1CCC(N2C(=O)c3ccc(NC4CCC(CCCn5cc(-c6cnc7ccccc7n6)cn5)CC4)cc3C2=O)C(=O)N1 (stereo not drawn) [GS-184, 2-(2,6-Dioxopiperidin-3-yl)-5-((4-(3-(4-(quinoxalin-2-yl)-1H-pyrazol-1-yl)propyl)cyclohexyl)amino)isoindoline-1,3-dione]

SMILES: O=C1CCC(N2C(=O)c3ccc(NCCNc4cccc(N5CCC(c6nccs6)CC5)c4)cc3C2=O)C(=O)N1 (stereo not drawn) [GS-370, 2-(2,6-Dioxopiperidin-3-yl)-5-((2-((3-(4-(thiazol-2-yl)piperidin-1-yl)phenyl)amino)ethyl)amino)isoindoline-1,3-dione]
IC50 [1, 16]: < 10 nM
IC50 ([1]; 72 h, with gilteritinib 20 nM, three days, read-out: MOLM-13 IC50 gilteritinib): < 10 nM
IC50 [2, 18]: < 10 nM
IC50 ([2]; 72 h, with gilteritinib 10 nM, three days, 11 IC50 gilteritinib): < 10 nM

IC50 [1, 10]: > 1000 nM
IC50 [1, 11]: 100 to 1000 nM
IC50 [2, 12]: > 1000 nM
IC50 [2, 13]: > 1000 nM
SMILES: O=C1CCC(N2C(=O)c3ccc(NCCCCCCN4CCC(n5cc(-c6cnc7ccccc7n6)cn5)CC4)cc3C2=O)C(=O)N1 (stereo not drawn) [GS-326, 2-(2,6-Dioxopiperidin-3-yl)-5-((6-(4-(4-(quinoxalin-2-yl)-1H-pyrazol-1-yl)piperidin-1-yl)hexyl)amino)isoindoline-1,3-dione]

IC50 [1, 10]: > 1000 nM
IC50 [1, 11]: 10 to 100 nM
IC50 [2, 12]: 100 to 1000 nM
IC50 [2, 13]: 10 to 100 nM
SMILES: O=C1CCC(N2C(=O)c3ccc(NCCC[C@H]4C[C@H](n5cc(-c6cc(Cl)ccn6)cn5)C4)cc3C2=O)C(=O)N1 (stereo partly drawn) [GS-328, 5-((3-(trans-3-(4-(4-Chloropyridin-2-yl)-1H-pyrazol-1-yl)cyclobutyl)propyl)amino)-2-(2,6-dioxopiperidin-3-yl)isoindoline-1,3-dione]

— US20240050428A1 (Cullgen (Shanghai), Inc., priority 2020, published 2024)
